Results reported in patent publication US20100076006A1, “Topiramate Plus Naltrexone for the Treatment of Addictive Disorders” (UNIVERSITY OF VIRGINIA PATENT FOUNDATION, priority 2007, published 2010).
Where a name gives a salt, the structure may show the parent alone.

Tests used:
[1] = system: alcoholism treatment; details: medication alone; cited from earlier work
[2] = system: rhesus monkeys; test: Naltrexone's effects on alcohol drinking in non-human primates, fixed ratio schedule of reinforcement; format: in vivo; details: three non food deprived rhesus monkeys, 3 hour sessions, naltrexone 0.1, 0.3, 1.0, 3.0 g/kg, water concurrently available
Protocol: FIG. 3 graphically illustrates the effects of Naltrexone on alcohol consumption in non-human primates (rhesus monkeys). Naltrexone was administered at 0.1 (∘), 0.3 ([…]), 1.0 (□) or 3.0 (▪) […]. The ordinate represents cumulative deliveries as percent change from baseline. The abscissa represents time in 10 minute blocks.
This study was principally conducted as a collaboration with Richard Meisch and Alan Boyle. […] During these 3 hour sessions, both water and alcohol were concurrently available.

[3] = system: alcohol-preferring (P) rats; test: Combined topiramate and naltrexone on alcohol consumption in animal model; format: in vivo; details: 8 rats
Protocol: FIG. 8 graphically illustrates the combined effect of topiramate and naltrexone on alcohol consumption in alcohol-preferring (P) rats. Rats received either vehicle, topiramate at 5 mg/kg, topiramate at 10 mg/kg, naltrexone at 1/mg/kg and topiramate at 5 mg/kg, naltrexone at 1/mg/kg and topiramate at 10 mg/kg, or naltrexone at 1 mg/kg. Each data point represents the mean (±SE) of 8 rats as a change from baseline.
No significant differences were observed following vehicle injection. Data are plotted as change from baseline consumption, and each data point represents a mean (±SE) of 8 rats.

[4] = system: EOA and LOA alcoholics; details: ondansetron 1, 4, 16 μg/kg twice daily (particularly 4 μg/kg), compared with LOA; cited from earlier work
[5] = system: alcohol dependence; details: topiramate up to 300 mg per day, 12 weeks, vs. placebo; cited from earlier work

Compound	typical effect sizes [1]	alcohol consumption (8% w/v) [2]	alcohol consumption, change from baseline ([3]; naltrexone alone, 1 mg/kg intraperitoneally)	drinking [4]	craving [5]	days of abstinence [5]	drinks per day, drinking days, and drinks per drinking day [5]	alcohol consumption, change from baseline ([3]; topiramate alone, 10 mg/kg intraperitoneally, effect not yet significant)
O=C1CC[C@@]2(O)[C@H]3Cc4ccc(O)c5c4[C@@]2(CCN3CC2CC2)[C@H]1O5 [naltrexone, 17-(Cyclopropylmethyl)-4,5a-epoxy-3,14-dihydroxymorphinan-6-one hydrochloride]	0.2±0.5	dose-dependent decreases	did not affect alcohol consumption					
Cc1nccn1CC1CCc2c(c3ccccc3n2C)C1=O (stereo not drawn) [ondansetron, 9-methyl-3-[(2-methyl-1H-imidazol-1-yl)methyl]-1,2,3,9-tetrahydrocarbazol-4-one]	0.2±0.5			significant reductions				
CC1(C)O[C@@H]2[C@@H](CO[C@@]3(COS(N)(=O)=O)OC(C)(C)O[C@@H]23)O1 [topiramate, 2,3:4,5-Bis-O-(1-methylethylidene)-beta-D-fructopyranose sulfamate]					significantly less	significantly more	significantly fewer	only modestly decreased
